{
  "source": "patent US11452758B2",
  "about": "“Antimicrobial peptide derived from LL37 peptide and uses thereof” (INDUSTRY-ACADEMIC COOPERATION FOUNDATION, CHOSUN UNIVERSITY, priority 2018, dated 2022)",
  "key": {"P. aeruginosa ATCC 27853": {"test_system": "P. aeruginosa ATCC 27853", "assay_type": "cell-based, Pseudomonas aeruginosa", "conditions": "ATCC 27853, 18 h", "description": "To compare the antimicrobial activity among the peptides produced by the method of Example 1, the inventors of the present invention measured the minimal growth inhibitory concentration (MIC), which is minimum concentration of the peptide not allowing any […] of bacterial cells.\nSpecifically, the bacterial strains described in the following Table 2 were purchased and cultured to a mid-log phase in MHB (Mueller Hinton Broth) medium. Then, after dilution to bacterial cell concentration of 2×10^5 cells/50 μl, the cells were inoculated to a microtiter plate (NUNC, USA). Thereafter, LL37-1, LL37-2, LL37-3 or LL37-4 peptide which has been synthesized in Example 1 above was subjected to serial dilution, ½ times for each, in a 96-well plate. After adding the peptides in an amount of 50 μl to the cell plate, the cells were cultured for 18 hours at 37° C. By using a microtiter plate reader (Merck Elisa reader, Germany), the absorbance was measured at a wavelength of 600 nm to determine the MIC value of each bacterial strain. As a control group, LL37 as a mother peptide was used and subjected to the same process as above to determine the MIC value of each strain."}, "[1]": {"test_system": "Acinetobacter baumannii KCTC 2508", "assay": "Flow cytometry after PI staining (bacteria membrane)", "assay_type": "cell-based", "conditions": "peptide at concentration of MIC, 30 minutes at 37° C.", "experimental": "To determine whether or not the peptides prepared by the method of Example 1 have any effect on bacteria membrane, an analysis was made by flow cytometry.\nAfter that, the supernatant was removed by centrifuge (10,000 rpm) and stained with propidium iodide (PI, concentration of 10 μg/ml) for 30 minutes at 4° C. Thereafter, unbound propidium iodide was removed by centrifuge, and the problem of cell aggregation phenomenon was solved by adding physiological saline (PBS) in an amount of 1 ml."}, "A. baumannii #3": {"test_system": "A. baumannii #3", "assay_type": "cell-based, Acinetobacter baumannii", "conditions": "#3", "summary_of_the_method": "(§1)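 Each value is the lowest peptide concentration permitting no bacterial growth, judged by 600 nm absorbance. Mid-log bacteria (2×10^5 cells/50 μl) met twofold peptide dilution series and were kept 18 h at 37° C.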"}, "A. baumannii #8": {"test_system": "A. baumannii #8", "assay_type": "cell-based, Acinetobacter baumannii", "conditions": "#8", "summary_of_the_method": "as §1"}, "A. baumannii #12": {"test_system": "A. baumannii #12", "assay_type": "cell-based, Acinetobacter baumannii", "conditions": "#12", "summary_of_the_method": "as §1"}, "A. baumannii #19": {"test_system": "A. baumannii #19", "assay_type": "cell-based, Acinetobacter baumannii", "conditions": "#19", "summary_of_the_method": "as §1"}, "A. baumannii #9": {"test_system": "A. baumannii #9", "assay_type": "cell-based, Acinetobacter baumannii", "conditions": "#9", "summary_of_the_method": "as §1"}, "[2]": {"test_system": "Acinetobacter baumannii KCTC 2508", "assay_type": "cell-based", "conditions": "peptide 100 μg/ml with 10.7 nM trypsin, 10 minutes at 37° C.; A. baumannii KCTC 2508", "experimental": "To determine the activity of the peptides, which have been prepared by the method of Example 1, in the presence of trypsin as one type of proteases, peptide stability against protease was determined by radial diffusion assay.\nSpecifically, among the bacterial strains that are described in the above Table 2, Acinetobacter baumannii KCTC 2508 cells were cultured to a mid-log phase in MHB medium, and, after diluting the cells to a cell concentration of 2×10^5 cells/10 ml, the cells were admixed with agarose which has been adjusted to final concentration of 1% and then evenly spread and solidified on a Petri dish. After that, the peptide adjusted to a concentration of 100 μg/ml was admixed with 10.7 nM trypsin and reacted for 10 minutes at 37° C. After applying a paper disk (diameter: 6 mm) on the solidified Petri dish, the peptide obtained after the reaction with trypsin was aliquoted thereto in an amount of 25 μl. After culture for 18 hours at 37° C., diameter of the clear zone around the paper disk was measured so that the level of antimicrobial activity for Acinetobacter baumannii KCTC 2508 was determined."}, "[3]": {"assay": "Cytotoxicity in normal cell line (MTT)", "assay_type": "cell-based, human", "conditions": "human", "experimental": "To determine the cytotoxicity of the peptides produced by the method of Example 1 in normal cell line, cytotoxicity was measured by using normal human keratinocyte cell line (HaCaT) and normal human fibroblast cell line (Hs27).\nSpecifically, normal human keratinocyte (HaCaT) cells and normal human fibroblast (Hs27) cells, which have been cultured in DMEM medium containing 10% FBS (fetal bovine serum), were aliquoted in a microtiter plate to have 1×10^4 cells per well. After culturing them for 24 hours, the cells were subjected to a treatment with LL37, LL37-1, LL37-2, LL37-3 or LL37-4 peptide, each at concentration of 0.5, 1, 2, 4, 8, 16 or 32 μM/well, followed by reaction for 24 hours in a 5% CO2 incubator. After culture, a reaction solution containing 5 mg/ml MTT (Thiazolyl Blue Tetrazolium Bromide) dissolved in phosphate buffered saline (PBS) was added in an amount of 10 μl to each well and the reaction was allowed to occur for 1 hour. After that, the supernatant was discarded, and, by dissolving MTT crystals that are formed by adding 200 μl DMSO (dimethyl sulfoxide), the absorbance at 570 nm was measured to determine the cell survival ability."}},
  "data": [
    {"smiles": "CC[C@H](C)[C@H](NC(=O)[C@H](CCCCN)NC(=O)[C@H](CCC(=O)O)NC(=O)[C@H](CCCCN)NC(=O)[C@H](CO)NC(=O)[C@H](CCCCN)NC(=O)[C@H](CCCNC(=N)N)NC(=O)[C@H](Cc1ccccc1)NC(=O)[C@H](Cc1ccccc1)NC(=O)[C@H](CC(=O)O)NC(=O)CNC(=O)[C@H](CC(C)C)NC(=O)[C@@H](N)CC(C)C)C(=O)NCC(=O)N[C@@H](CCCCN)C(=O)N[C@@H](CCC(=O)O)C(=O)N[C@@H](Cc1ccccc1)C(=O)N[C@@H](CCCCN)C(=O)N[C@@H](CCCNC(=N)N)C(=O)N[C@H](C(=O)N[C@H](C(=O)N[C@@H](CCC(N)=O)C(=O)N[C@@H](CCCNC(=N)N)C(=O)N[C@H](C(=O)N[C@@H](CCCCN)C(=O)N[C@@H](CC(=O)O)C(=O)N[C@@H](Cc1ccccc1)C(=O)N[C@@H](CC(C)C)C(=O)N[C@@H](CCCNC(=N)N)C(=O)N[C@@H](CC(N)=O)C(=O)N[C@@H](CC(C)C)C(=O)N[C@H](C(=O)N1CCC[C@H]1C(=O)N[C@@H](CCCNC(=N)N)C(=O)N[C@H](C(=O)N[C@@H](CCC(=O)O)C(=O)N[C@@H](CO)C(N)=O)[C@@H](C)O)C(C)C)[C@@H](C)CC)C(C)C)[C@@H](C)CC", "note": "[LL37]", "values": [
      {"measurement": "Minimal inhibitory concentration", "setting": "P. aeruginosa ATCC 27853", "value": 8, "unit": "µM"},
      {"measurement": "effect on bacteria membrane (PI fluorescence, flow cytometry)", "setting": "[1]", "value": "bacteria membrane was damaged"},
      {"measurement": "Minimal inhibitory concentration", "setting": "A. baumannii #3", "value": 2, "unit": "µM"},
      {"measurement": "Minimal inhibitory concentration", "setting": "A. baumannii #8", "value": 2, "unit": "µM"},
      {"measurement": "Minimal inhibitory concentration", "setting": "A. baumannii #12", "value": 2, "unit": "µM"},
      {"measurement": "Minimal inhibitory concentration", "setting": "A. baumannii #19", "value": 2, "unit": "µM"},
      {"measurement": "Minimal inhibitory concentration", "setting": "A. baumannii #9", "value": 2, "unit": "µM"},
      {"measurement": "antimicrobial activity after reaction with trypsin", "setting": "[2]", "value": "did not exhibit any antimicrobial activity"},
      {"measurement": "viability at 24 h, 0.5 µM", "setting": "[3]; HaCaT keratinocyte cells", "value": 99, "unit": "%"},
      {"measurement": "viability at 24 h, 1 µM", "setting": "[3]; HaCaT keratinocyte cells", "value": 99, "unit": "%"},
      {"measurement": "viability at 24 h, 2 µM", "setting": "[3]; HaCaT keratinocyte cells", "value": 96, "unit": "%"},
      {"measurement": "viability at 24 h, 4 µM", "setting": "[3]; HaCaT keratinocyte cells", "value": 98, "unit": "%"},
      {"measurement": "viability at 24 h, 8 µM", "setting": "[3]; HaCaT keratinocyte cells", "value": 99, "unit": "%"},
      {"measurement": "viability at 24 h, 16 µM", "setting": "[3]; HaCaT keratinocyte cells", "value": 83, "unit": "%"},
      {"measurement": "viability at 24 h, 32 µM", "setting": "[3]; HaCaT keratinocyte cells", "value": 17, "unit": "%"},
      {"measurement": "viability at 24 h, 0.5 µM", "setting": "[3]; Hs27 fibroblast cells", "value": 95, "unit": "%"},
      {"measurement": "viability at 24 h, 1 µM", "setting": "[3]; Hs27 fibroblast cells", "value": 90, "unit": "%"},
      {"measurement": "viability at 24 h, 2 µM", "setting": "[3]; Hs27 fibroblast cells", "value": 90, "unit": "%"},
      {"measurement": "viability at 24 h, 4 µM", "setting": "[3]; Hs27 fibroblast cells", "value": 89, "unit": "%"},
      {"measurement": "viability at 24 h, 8 µM", "setting": "[3]; Hs27 fibroblast cells", "value": 90, "unit": "%"},
      {"measurement": "viability at 24 h, 16 µM", "setting": "[3]; Hs27 fibroblast cells", "value": 82, "unit": "%"},
      {"measurement": "viability at 24 h, 32 µM", "setting": "[3]; Hs27 fibroblast cells", "value": 19, "unit": "%"}
    ]}
  ]
}
